Key:
Assay type in all cases: in vivo
Wheat [1] = experiment: Postemergent activity; conditions: Triticum aestivum, post-emergence, 336 h, read-out: % Control
Outline: (§1)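 Pots of plants about 10 cm tall sprayed to run-off at 125, 62.5, 31.25, 15.6, 7.8 and 3.9 ppm. Spray: active in acetone mixed with an equal volume of water containing 0.1% TWEEN 200. Growth scored two weeks later on a 0–100 scale (0 no effect, 100 complete kill).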

Wild Oats [2] = experiment: Postemergent activity; conditions: Avena fatua, post-emergence, 336 h, read-out: % Control
Outline: as §1

Barley = experiment: Postemergent activity
Procedure: (§2) Representative compositions of the present invention were evaluated for the postemergence control of species of plants listed in Table A. In these evaluations, pots of the plant species listed in Table A, grown to a height of about 10 cms, were used. […] The spray compositions were made by mixing the active ingredient in acetone to 1/2 the final volume, i.e., twice the final concentration. An equal amount of water was added to the active ingredient/acetone mixture wherein the water contained 0.1 percent by weight of TWEEN® 200 surfactant. The application to the plants was made to the point of run-off and was carried out with conventional spraying equipment. […] Thereafter, the pots were maintained under conditions conducive for plant growth.

Blackgrass = experiment: Postemergent activity
Procedure: as §2

Cheatgrass = experiment: Postemergent activity
Procedure: as §2

Green Foxtail = experiment: Postemergent activity
Procedure: as §2

Yellow Foxtail [3] = experiment: Postemergent activity
Procedure: as §2

Crabgrass = experiment: Preemergent activity
Outline: (§3)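 Test compound was dissolved in acetone at twice the final concentration, then mixed with an equal volume of water containing 0.1% w/w Tween-20. The resulting emulsion was sprayed uniformly at a predetermined rate onto sandy loam seed beds sown with each species. Controls received acetone–Tween-20–water only.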

Wheat [4] = experiment: Preemergent activity; conditions: Triticum aestivum, pre-emergence, read-out: Preemergence Control
Outline: as §3

Wild Oats [5] = experiment: Preemergent activity; conditions: Avena fatua, pre-emergence, read-out: Preemergence Control
Outline: as §3

Yellow Foxtail [6] = experiment: Preemergent activity; conditions: Setaria, pre-emergence, read-out: Preemergence Control
Outline: as §3

Question: How did the plant injury at 15.6 ppm (Wheat [1]) turn out when `COC(=O)C(C)Oc1ccc(Oc2ccc(Cl)cc2F)cc1` (racemic) [Example 4-Chloro-, 2-[4-(4-chloro-2-fluorophenoxy)phenoxy]propionic acid methyl ester] was run?
Answer: 0%

Question: And the plant injury at 31.25 ppm (Wheat [1])?
Answer: 0%

Question: And the plant injury at 62.5 ppm (Wheat [1])?
Answer: 0%

Question: And the plant injury at 125 ppm (Wheat [1])?
Answer: 0%

Question: And the plant injury at 250 ppm (Wheat [1])?
Answer: 0%

Question: What about the plant injury at 500 ppm (Wheat [1]) of the same compound?
Answer: 40%

Question: And the pest or weed control at 15.6 ppm (Wild Oats [2])?
Answer: 40%

Question: What about the pest or weed control at 31.25 ppm (Wild Oats [2]) of the same compound?
Answer: 100%

Question: And the pest or weed control at 62.5 ppm (Wild Oats [2])?
Answer: 95%

Question: What about the pest or weed control at 125 ppm (Wild Oats [2]) of the same compound?
Answer: 90%

Question: And the pest or weed control at 250 ppm (Wild Oats [2])?
Answer: 100%

Question: And the pest or weed control at 500 ppm (Wild Oats [2])?
Answer: 100%

Question: And the “% Control” value (Barley; 15.6 ppm)?
Answer: 0%

Question: What about the “% Control” value (Barley; 31.25 ppm) of the same compound?
Answer: 0%

Question: What about the “% Control” value (Barley; 62.5 ppm) of the same compound?
Answer: 0%

Question: And the “% Control” value (Barley; 125 ppm)?
Answer: 0%

Question: And the “% Control” value (Barley; 250 ppm)?
Answer: 0%

Question: What about the “% Control” value (Barley; 500 ppm) of the same compound?
Answer: 50%

Question: What about the “% Control” value (Blackgrass; 1.56 ppm) of the same compound?
Answer: 50%

Question: And the “% Control” value (Blackgrass; 3.1 ppm)?
Answer: 50%

Question: And the “% Control” value (Blackgrass; 6.3 ppm)?
Answer: 100%

Question: And the “% Control” value (Blackgrass; 12.5 ppm)?
Answer: 100%

Question: What about the “% Control” value (Blackgrass; 25 ppm) of the same compound?
Answer: 99%

Question: What about the “% Control” value (Blackgrass; 50 ppm) of the same compound?
Answer: 100%

Question: What about the “% Control” value (Blackgrass; 100 ppm) of the same compound?
Answer: 100%

Question: And the “% Control” value (Cheatgrass; 1.56 ppm)?
Answer: 0%

Question: What about the “% Control” value (Cheatgrass; 3.1 ppm) of the same compound?
Answer: 0%

Question: What about the “% Control” value (Cheatgrass; 6.3 ppm) of the same compound?
Answer: 0%

Question: And the “% Control” value (Cheatgrass; 12.5 ppm)?
Answer: 0%

Question: And the “% Control” value (Cheatgrass; 25 ppm)?
Answer: 0%

Question: What about the “% Control” value (Cheatgrass; 50 ppm) of the same compound?
Answer: 10%

Question: What about the “% Control” value (Cheatgrass; 100 ppm) of the same compound?
Answer: 40%

Question: And the “% Control” value (Green Foxtail; 1.56 ppm)?
Answer: 95%

Question: And the “% Control” value (Green Foxtail; 3.1 ppm)?
Answer: 100%

Question: What about the “% Control” value (Green Foxtail; 6.3 ppm) of the same compound?
Answer: 100%

Question: What about the “% Control” value (Green Foxtail; 12.5 ppm) of the same compound?
Answer: 100%

Question: And the “% Control” value (Green Foxtail; 25 ppm)?
Answer: 100%

Question: And the “% Control” value (Green Foxtail; 50 ppm)?
Answer: 100%

Question: And the “% Control” value (Green Foxtail; 100 ppm)?
Answer: 100%

Question: And the “% Control” value (Yellow Foxtail [3]; 1.56 ppm)?
Answer: 50%

Question: And the “% Control” value (Yellow Foxtail [3]; 3.1 ppm)?
Answer: 80%

Question: What about the “% Control” value (Yellow Foxtail [3]; 6.3 ppm) of the same compound?
Answer: 100%

Question: And the “% Control” value (Yellow Foxtail [3]; 12.5 ppm)?
Answer: 100%

Question: And the “% Control” value (Yellow Foxtail [3]; 25 ppm)?
Answer: 100%

Question: What about the “% Control” value (Yellow Foxtail [3]; 50 ppm) of the same compound?
Answer: 100%

Question: And the “% Control” value (Yellow Foxtail [3]; 100 ppm)?
Answer: 100%

Question: What about the “Preemergence Control” value (Crabgrass; 0.07 kgs/hectare) of the same compound?
Answer: 60%

Question: What about the “Preemergence Control” value (Crabgrass; 0.14 kgs/hectare) of the same compound?
Answer: 100%

Question: What about the “Preemergence Control” value (Crabgrass; 0.28 kgs/hectare) of the same compound?
Answer: 100%

Question: What about the “Preemergence Control” value (Crabgrass; 0.56 kgs/hectare) of the same compound?
Answer: 100%

Question: And the “Preemergence Control” value (Crabgrass; 1.12 kgs/hectare)?
Answer: 100%

Question: And the plant injury at 70 g/ha (Wheat [4]; 0.07 kgs/hectare)?
Answer: 0%

Question: And the plant injury at 140 g/ha (Wheat [4]; 0.14 kgs/hectare)?
Answer: 0%

Question: What about the plant injury at 280 g/ha (Wheat [4]; 0.28 kgs/hectare) of the same compound?
Answer: 0%

Question: And the plant injury at 560 g/ha (Wheat [4]; 0.56 kgs/hectare)?
Answer: 0%

Question: What about the plant injury at 1120 g/ha (Wheat [4]; 1.12 kgs/hectare) of the same compound?
Answer: 0%

Question: What about the pest or weed control at 70 g/ha (Wild Oats [5]; 0.07 kgs/hectare) of the same compound?
Answer: 0%

Question: What about the pest or weed control at 140 g/ha (Wild Oats [5]; 0.14 kgs/hectare) of the same compound?
Answer: 0%

Question: What about the pest or weed control at 280 g/ha (Wild Oats [5]; 0.28 kgs/hectare) of the same compound?
Answer: 20%

Question: And the pest or weed control at 560 g/ha (Wild Oats [5]; 0.56 kgs/hectare)?
Answer: 50%

Question: And the pest or weed control at 1120 g/ha (Wild Oats [5]; 1.12 kgs/hectare)?
Answer: 70%

Question: And the pest or weed control at 70 g/ha (Yellow Foxtail [6]; 0.07 kgs/hectare)?
Answer: 0%

Question: And the pest or weed control at 140 g/ha (Yellow Foxtail [6]; 0.14 kgs/hectare)?
Answer: 10%

Question: What about the pest or weed control at 280 g/ha (Yellow Foxtail [6]; 0.28 kgs/hectare) of the same compound?
Answer: 90%

Question: What about the pest or weed control at 560 g/ha (Yellow Foxtail [6]; 0.56 kgs/hectare) of the same compound?
Answer: 95%

Question: And the pest or weed control at 1120 g/ha (Yellow Foxtail [6]; 1.12 kgs/hectare)?
Answer: 95%

From US4725683A, “Fluorophenoxyphenoxypropionates and derivatives thereof” (The Dow Chemical Company, priority 1985, dated 1988)
